Measured values: PubChem BioAssay (NCI)
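At the GI50, growth is halved. TGI is the concentration that stops growth completely.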

What was measured:
Experiment in all cases: DTP human tumour cell line panel, 384-well format
A498 renal = system: A498 renal
A549 NSCLC = system: A549 NSCLC
ACHN renal = system: ACHN renal
BT-549 breast = system: BT-549 breast
CAKI-1 renal = system: CAKI-1 renal
COLO 205 colon = system: COLO 205 colon
DU-145 prostate = system: DU-145 prostate
EKVX NSCLC = system: EKVX NSCLC
HCC-2998 colon = system: HCC-2998 colon
HCT-116 colon = system: HCT-116 colon
HCT-15 colon = system: HCT-15 colon
HL-60(TB) leukemia = system: HL-60(TB) leukemia
HOP-62 NSCLC = system: HOP-62 NSCLC
HOP-92 NSCLC = system: HOP-92 NSCLC
HS 578T breast = system: HS 578T breast
HT29 colon = system: HT29 colon
IGROV1 ovarian = system: IGROV1 ovarian
KM12 colon = system: KM12 colon
LOX IMVI melanoma = system: LOX IMVI melanoma
M14 melanoma = system: M14 melanoma
MALME-3M melanoma = system: MALME-3M melanoma
MCF7 breast = system: MCF7 breast
MDA-MB-231 breast = system: MDA-MB-231 breast
MDA-MB-435 melanoma = system: MDA-MB-435 melanoma
MDA-MB-468 breast = system: MDA-MB-468 breast
MOLT-4 leukemia = system: MOLT-4 leukemia
NCI-H226 lung = system: NCI-H226 lung
NCI-H23 lung = system: NCI-H23 lung
NCI-H322M lung = system: NCI-H322M lung
NCI-H460 NSCLC = system: NCI-H460 NSCLC
NCI-H522 lung = system: NCI-H522 lung
NCI/ADR-RES ovarian = system: NCI/ADR-RES ovarian
OVCAR-3 ovarian = system: OVCAR-3 ovarian
OVCAR-4 ovarian = system: OVCAR-4 ovarian
OVCAR-5 ovarian = system: OVCAR-5 ovarian
OVCAR-8 ovarian = system: OVCAR-8 ovarian
PC-3 prostate = system: PC-3 prostate
RPMI-8226 leukemia = system: RPMI-8226 leukemia
RXF 393 renal = system: RXF 393 renal
SF-268 CNS = system: SF-268 CNS
SF-295 CNS = system: SF-295 CNS
SF-539 CNS = system: SF-539 CNS
SK-MEL-28 melanoma = system: SK-MEL-28 melanoma
SK-MEL-5 melanoma = system: SK-MEL-5 melanoma
SK-OV-3 ovarian = system: SK-OV-3 ovarian
SN12C renal = system: SN12C renal
SNB-19 CNS = system: SNB-19 CNS
SNB-75 CNS = system: SNB-75 CNS
SR leukemia = system: SR leukemia
T-47D breast = system: T-47D breast
TK-10 renal = system: TK-10 renal
U251 glioblastoma = system: U251 glioblastoma
UACC-257 melanoma = system: UACC-257 melanoma
UACC-62 melanoma = system: UACC-62 melanoma

`CCn1c(C(=O)N(C2CC2)C2CC2)cc2c3c(ncn3C)c(Nc3cc(C)n(C)n3)nc21` was tested, and the GI50 (A498 renal) was greater than 100 µM, the TGI (A498 renal) was greater than 100 µM and the GI50 (A549 NSCLC) was greater than 100 µM. The TGI (A549 NSCLC) was greater than 100 µM, the GI50 (ACHN renal) was greater than 100 µM and the TGI (ACHN renal) was greater than 100 µM. For the same molecule, the GI50 (BT-549 breast) was greater than 100 µM, the TGI (BT-549 breast) was greater than 100 µM and the GI50 (CAKI-1 renal) was greater than 100 µM. For the same molecule, the TGI (CAKI-1 renal) was greater than 100 µM, the GI50 (COLO 205 colon) was greater than 100 µM and the TGI (COLO 205 colon) was greater than 100 µM. It also gave a GI50 (DU-145 prostate) greater than 100 µM, a TGI (DU-145 prostate) greater than 100 µM and a GI50 (EKVX NSCLC) greater than 100 µM. The TGI (EKVX NSCLC) was greater than 100 µM, the GI50 (HCC-2998 colon) was greater than 100 µM and the TGI (HCC-2998 colon) was greater than 100 µM. It also gave a GI50 (HCT-116 colon) greater than 100 µM, a TGI (HCT-116 colon) greater than 100 µM and a GI50 (HCT-15 colon) greater than 100 µM. The TGI (HCT-15 colon) was greater than 100 µM, the GI50 (HL-60(TB) leukemia) was greater than 100 µM and the TGI (HL-60(TB) leukemia) was greater than 100 µM. It also gave a GI50 (HOP-62 NSCLC) greater than 100 µM, a TGI (HOP-62 NSCLC) greater than 100 µM and a GI50 (HOP-92 NSCLC) greater than 100 µM. The TGI (HOP-92 NSCLC) was greater than 100 µM, the GI50 (HS 578T breast) was greater than 100 µM and the TGI (HS 578T breast) was greater than 100 µM. The GI50 (HT29 colon) was greater than 100 µM, the TGI (HT29 colon) was greater than 100 µM and the GI50 (IGROV1 ovarian) was 44 µM. The TGI (IGROV1 ovarian) was greater than 100 µM, the GI50 (KM12 colon) was 675 nM and the TGI (KM12 colon) was greater than 100 µM. For the same molecule, the GI50 (LOX IMVI melanoma) was 49.7 µM, the TGI (LOX IMVI melanoma) was greater than 100 µM and the GI50 (M14 melanoma) was greater than 100 µM. The TGI (M14 melanoma) was greater than 100 µM, the GI50 (MALME-3M melanoma) was greater than 100 µM and the TGI (MALME-3M melanoma) was greater than 100 µM. It also gave a GI50 (MCF7 breast) greater than 100 µM, a TGI (MCF7 breast) greater than 100 µM and a GI50 (MDA-MB-231 breast) greater than 100 µM. The TGI (MDA-MB-231 breast) was greater than 100 µM, the GI50 (MDA-MB-435 melanoma) was greater than 100 µM and the TGI (MDA-MB-435 melanoma) was greater than 100 µM. For the same molecule, the GI50 (MDA-MB-468 breast) was greater than 100 µM, the TGI (MDA-MB-468 breast) was greater than 100 µM and the GI50 (MOLT-4 leukemia) was 87.2 µM. For the same molecule, the TGI (MOLT-4 leukemia) was greater than 100 µM, the GI50 (NCI-H226 lung) was greater than 100 µM and the TGI (NCI-H226 lung) was greater than 100 µM. It also gave a GI50 (NCI-H23 lung) greater than 100 µM, a TGI (NCI-H23 lung) greater than 100 µM and a GI50 (NCI-H322M lung) greater than 100 µM. It also gave a TGI (NCI-H322M lung) greater than 100 µM, a GI50 (NCI-H460 NSCLC) greater than 100 µM and a TGI (NCI-H460 NSCLC) greater than 100 µM. It also gave a GI50 (NCI-H522 lung) greater than 100 µM, a TGI (NCI-H522 lung) greater than 100 µM and a GI50 (NCI/ADR-RES ovarian) greater than 100 µM. For the same molecule, the TGI (NCI/ADR-RES ovarian) was greater than 100 µM, the GI50 (OVCAR-3 ovarian) was greater than 100 µM and the TGI (OVCAR-3 ovarian) was greater than 100 µM. For the same molecule, the GI50 (OVCAR-4 ovarian) was 33.4 µM, the TGI (OVCAR-4 ovarian) was greater than 100 µM and the GI50 (OVCAR-5 ovarian) was greater than 100 µM. For the same molecule, the TGI (OVCAR-5 ovarian) was greater than 100 µM, the GI50 (OVCAR-8 ovarian) was greater than 100 µM and the TGI (OVCAR-8 ovarian) was greater than 100 µM. The GI50 (PC-3 prostate) was greater than 100 µM, the TGI (PC-3 prostate) was greater than 100 µM and the GI50 (RPMI-8226 leukemia) was greater than 100 µM. For the same molecule, the TGI (RPMI-8226 leukemia) was greater than 100 µM, the GI50 (RXF 393 renal) was greater than 100 µM and the TGI (RXF 393 renal) was greater than 100 µM. For the same molecule, the GI50 (SF-268 CNS) was greater than 100 µM, the TGI (SF-268 CNS) was greater than 100 µM and the GI50 (SF-295 CNS) was greater than 100 µM. The TGI (SF-295 CNS) was greater than 100 µM, the GI50 (SF-539 CNS) was greater than 100 µM and the TGI (SF-539 CNS) was greater than 100 µM. For the same molecule, the GI50 (SK-MEL-28 melanoma) was greater than 100 µM, the TGI (SK-MEL-28 melanoma) was greater than 100 µM and the GI50 (SK-MEL-5 melanoma) was greater than 100 µM. For the same molecule, the TGI (SK-MEL-5 melanoma) was greater than 100 µM, the GI50 (SK-OV-3 ovarian) was 34.8 µM and the TGI (SK-OV-3 ovarian) was greater than 100 µM. For the same molecule, the GI50 (SN12C renal) was 3.43 µM, the TGI (SN12C renal) was greater than 100 µM and the GI50 (SNB-19 CNS) was greater than 100 µM. For the same molecule, the TGI (SNB-19 CNS) was greater than 100 µM, the GI50 (SNB-75 CNS) was 26.2 µM and the TGI (SNB-75 CNS) was greater than 100 µM. For the same molecule, the GI50 (SR leukemia) was 8.59 µM, the TGI (SR leukemia) was 50.5 µM and the GI50 (T-47D breast) was greater than 100 µM. It also gave a TGI (T-47D breast) greater than 100 µM, a GI50 (TK-10 renal) of 81.8 µM and a TGI (TK-10 renal) greater than 100 µM. For the same molecule, the GI50 (U251 glioblastoma) was greater than 100 µM, the TGI (U251 glioblastoma) was greater than 100 µM and the GI50 (UACC-257 melanoma) was greater than 100 µM. For the same molecule, the TGI (UACC-257 melanoma) was greater than 100 µM, the GI50 (UACC-62 melanoma) was greater than 100 µM and the TGI (UACC-62 melanoma) was greater than 100 µM.
